Laboratory results: ChEMBL document CHEMBL5653615 (J Biol Chem, 2013)

Assays:
[1] = molecular target: T1, Serine/threonine-protein kinase D1 (Homo sapiens) (UniProt Q15139); experiment: Inhibition of human PRKD1 at 18.6 nM by HotSpot assay relative to control
T1 sequence (whole entry): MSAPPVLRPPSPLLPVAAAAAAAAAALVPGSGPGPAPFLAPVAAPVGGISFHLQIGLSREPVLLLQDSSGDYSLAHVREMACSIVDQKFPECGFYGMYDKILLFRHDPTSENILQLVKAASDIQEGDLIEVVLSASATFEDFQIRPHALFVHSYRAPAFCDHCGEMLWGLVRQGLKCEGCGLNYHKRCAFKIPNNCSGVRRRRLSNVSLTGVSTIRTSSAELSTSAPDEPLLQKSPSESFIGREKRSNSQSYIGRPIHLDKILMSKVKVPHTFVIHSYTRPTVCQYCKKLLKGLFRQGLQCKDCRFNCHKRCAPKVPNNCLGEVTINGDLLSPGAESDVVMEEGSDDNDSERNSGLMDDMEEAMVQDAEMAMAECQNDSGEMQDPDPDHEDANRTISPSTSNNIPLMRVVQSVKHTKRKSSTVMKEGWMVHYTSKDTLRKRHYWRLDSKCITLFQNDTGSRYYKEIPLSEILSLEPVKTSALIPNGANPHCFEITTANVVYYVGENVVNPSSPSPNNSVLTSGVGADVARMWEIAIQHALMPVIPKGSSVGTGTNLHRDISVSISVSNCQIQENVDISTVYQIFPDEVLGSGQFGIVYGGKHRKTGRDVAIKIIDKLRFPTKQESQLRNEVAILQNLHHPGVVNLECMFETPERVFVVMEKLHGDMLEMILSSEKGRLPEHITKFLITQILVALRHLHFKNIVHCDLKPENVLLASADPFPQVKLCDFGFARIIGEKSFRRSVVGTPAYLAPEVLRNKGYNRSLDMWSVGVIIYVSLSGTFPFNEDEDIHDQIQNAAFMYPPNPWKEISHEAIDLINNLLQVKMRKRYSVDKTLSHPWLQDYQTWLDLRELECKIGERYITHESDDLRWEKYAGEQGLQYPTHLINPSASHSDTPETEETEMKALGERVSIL

[2] = molecular target: Mitogen-activated protein kinase 3 (Homo sapiens) (UniProt P27361); experiment: Inhibition of human ERK1 at 18.6 nM by HotSpot assay relative to control
[3] = molecular target: Serine/threonine-protein kinase Nek6 (Homo sapiens) (UniProt Q9HC98); experiment: Inhibition of human NEK6 at 18.6 nM by HotSpot assay relative to control
[4] = molecular target: Tyrosine-protein kinase Fer (Homo sapiens) (UniProt P16591); experiment: Inhibition of human FER at 18.6 nM by HotSpot assay relative to control
[5] = molecular target: Leucine-rich repeat serine/threonine-protein kinase 2 (Homo sapiens) (UniProt Q5S007); experiment: Inhibition of human LRRK2 at 18.6 nM by HotSpot assay relative to control
[6] = molecular target: Death-associated protein kinase 3 (Homo sapiens) (UniProt O43293); experiment: Inhibition of human DAPK3 at 18.6 nM by HotSpot assay relative to control
[7] = molecular target: Dual specificity tyrosine-phosphorylation-regulated kinase 1B (Homo sapiens) (UniProt Q9Y463); experiment: Inhibition of human DYRK1B at 18.6 nM by HotSpot assay relative to control
[8] = molecular target: Protein kinase C delta type (Homo sapiens) (UniProt Q05655); experiment: Inhibition of human PKCd at 1.82 nM by HotSpot assay relative to control
[9] = molecular target: RAC-gamma serine/threonine-protein kinase (Homo sapiens) (UniProt Q9Y243); experiment: Inhibition of human AKT3 at 1.82 nM by HotSpot assay relative to control
[10] = molecular target: Platelet-derived growth factor receptor alpha (Homo sapiens) (UniProt P16234); experiment: Inhibition of human PDGFRa at 1.82 nM by HotSpot assay relative to control
[11] = molecular target: Casein kinase I isoform epsilon (Homo sapiens) (UniProt P49674); experiment: Inhibition of human CK1epsilon at 1.82 nM by HotSpot assay relative to control
[12] = molecular target: PAS domain-containing serine/threonine-protein kinase (Homo sapiens) (UniProt Q96RG2); experiment: Inhibition of human PASK at 1.82 nM by HotSpot assay relative to control
[13] = molecular target: Mitogen-activated protein kinase kinase kinase kinase 4 (Homo sapiens) (UniProt O95819); experiment: Inhibition of human HGK at 1.82 nM by HotSpot assay relative to control
[14] = molecular target: T2, Ephrin type-A receptor 8 (Homo sapiens) (UniProt P29322); experiment: Inhibition of human EPHA8 at 1.82 nM by HotSpot assay relative to control
T2 sequence (whole entry): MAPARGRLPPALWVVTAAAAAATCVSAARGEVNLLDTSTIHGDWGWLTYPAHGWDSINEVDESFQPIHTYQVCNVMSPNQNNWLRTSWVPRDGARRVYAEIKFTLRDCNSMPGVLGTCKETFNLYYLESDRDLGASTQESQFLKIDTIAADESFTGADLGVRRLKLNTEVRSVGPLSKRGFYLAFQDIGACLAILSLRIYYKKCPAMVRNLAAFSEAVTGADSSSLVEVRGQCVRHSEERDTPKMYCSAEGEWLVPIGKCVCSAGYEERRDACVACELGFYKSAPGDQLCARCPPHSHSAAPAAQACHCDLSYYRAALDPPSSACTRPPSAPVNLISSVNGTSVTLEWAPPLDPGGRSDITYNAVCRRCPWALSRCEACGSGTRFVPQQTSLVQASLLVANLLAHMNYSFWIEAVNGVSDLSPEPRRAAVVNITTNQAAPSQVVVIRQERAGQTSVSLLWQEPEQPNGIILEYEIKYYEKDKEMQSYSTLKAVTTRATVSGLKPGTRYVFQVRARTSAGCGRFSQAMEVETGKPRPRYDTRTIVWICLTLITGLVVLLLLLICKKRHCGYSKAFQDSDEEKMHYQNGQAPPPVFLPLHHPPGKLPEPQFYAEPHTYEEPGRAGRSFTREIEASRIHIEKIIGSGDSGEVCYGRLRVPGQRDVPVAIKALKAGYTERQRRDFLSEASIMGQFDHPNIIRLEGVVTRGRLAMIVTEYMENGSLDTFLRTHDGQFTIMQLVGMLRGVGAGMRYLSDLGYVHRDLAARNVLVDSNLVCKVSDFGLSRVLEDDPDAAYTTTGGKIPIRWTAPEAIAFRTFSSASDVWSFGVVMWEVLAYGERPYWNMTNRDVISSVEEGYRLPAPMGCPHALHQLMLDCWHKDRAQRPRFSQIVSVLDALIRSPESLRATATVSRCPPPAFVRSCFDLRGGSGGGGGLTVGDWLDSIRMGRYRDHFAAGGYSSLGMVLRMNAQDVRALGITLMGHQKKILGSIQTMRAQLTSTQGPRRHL

[15] = molecular target: Casein kinase II subunit alpha' (Homo sapiens) (UniProt P19784); experiment: Inhibition of human CK2a2 at 1.82 nM by HotSpot assay relative to control
Casein kinase II subunit alpha' (Homo sapiens), sequence (P19784 whole entry, looked up): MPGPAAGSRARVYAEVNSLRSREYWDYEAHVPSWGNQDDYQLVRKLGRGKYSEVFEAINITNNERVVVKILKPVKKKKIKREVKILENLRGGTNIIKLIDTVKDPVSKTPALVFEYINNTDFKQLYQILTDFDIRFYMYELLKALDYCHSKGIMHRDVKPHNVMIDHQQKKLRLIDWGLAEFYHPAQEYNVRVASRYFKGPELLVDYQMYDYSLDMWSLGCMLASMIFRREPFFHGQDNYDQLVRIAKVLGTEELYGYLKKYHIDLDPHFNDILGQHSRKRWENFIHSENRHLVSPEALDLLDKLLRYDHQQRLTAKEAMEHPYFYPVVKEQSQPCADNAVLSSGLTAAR

Tyrosine-protein kinase Fer (Homo sapiens), sequence (P16591 whole entry, looked up): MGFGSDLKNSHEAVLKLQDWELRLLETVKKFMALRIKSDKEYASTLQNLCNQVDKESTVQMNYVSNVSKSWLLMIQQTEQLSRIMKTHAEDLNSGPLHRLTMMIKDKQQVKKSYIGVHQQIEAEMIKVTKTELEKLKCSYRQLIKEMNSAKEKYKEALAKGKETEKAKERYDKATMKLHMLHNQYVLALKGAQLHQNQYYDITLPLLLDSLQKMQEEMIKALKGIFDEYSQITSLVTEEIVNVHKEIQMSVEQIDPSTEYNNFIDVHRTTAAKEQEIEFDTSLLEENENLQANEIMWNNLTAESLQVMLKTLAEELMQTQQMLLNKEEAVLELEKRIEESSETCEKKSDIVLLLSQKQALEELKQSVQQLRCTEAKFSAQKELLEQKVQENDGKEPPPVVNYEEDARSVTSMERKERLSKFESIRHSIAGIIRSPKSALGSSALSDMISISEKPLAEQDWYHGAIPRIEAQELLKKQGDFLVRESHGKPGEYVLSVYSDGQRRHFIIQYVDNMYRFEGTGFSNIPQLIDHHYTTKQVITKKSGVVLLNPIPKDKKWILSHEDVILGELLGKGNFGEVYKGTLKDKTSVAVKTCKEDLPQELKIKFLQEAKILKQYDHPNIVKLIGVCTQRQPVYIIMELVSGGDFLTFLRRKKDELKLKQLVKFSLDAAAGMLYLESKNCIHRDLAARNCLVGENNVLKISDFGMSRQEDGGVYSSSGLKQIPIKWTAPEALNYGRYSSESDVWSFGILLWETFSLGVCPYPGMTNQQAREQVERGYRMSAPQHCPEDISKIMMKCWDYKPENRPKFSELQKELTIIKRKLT
Dual specificity tyrosine-phosphorylation-regulated kinase 1B (Homo sapiens), sequence (Q9Y463 whole entry, looked up): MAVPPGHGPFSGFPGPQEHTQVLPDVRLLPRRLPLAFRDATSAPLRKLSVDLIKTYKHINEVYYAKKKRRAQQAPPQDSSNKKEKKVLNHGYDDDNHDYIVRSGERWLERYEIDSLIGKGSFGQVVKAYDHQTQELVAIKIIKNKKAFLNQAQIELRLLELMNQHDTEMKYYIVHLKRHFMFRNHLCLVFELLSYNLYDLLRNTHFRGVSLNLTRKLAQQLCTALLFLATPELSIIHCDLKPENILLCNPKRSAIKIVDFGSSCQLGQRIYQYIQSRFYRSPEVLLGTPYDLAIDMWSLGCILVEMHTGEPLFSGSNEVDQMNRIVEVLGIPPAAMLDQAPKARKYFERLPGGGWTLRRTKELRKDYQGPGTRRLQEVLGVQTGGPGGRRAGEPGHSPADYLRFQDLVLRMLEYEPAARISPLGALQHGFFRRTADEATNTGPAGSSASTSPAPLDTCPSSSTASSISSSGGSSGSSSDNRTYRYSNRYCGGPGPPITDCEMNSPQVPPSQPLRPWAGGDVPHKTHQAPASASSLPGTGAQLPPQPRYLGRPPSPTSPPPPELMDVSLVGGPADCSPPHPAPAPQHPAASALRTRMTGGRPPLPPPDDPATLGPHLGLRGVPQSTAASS
Death-associated protein kinase 3 (Homo sapiens), sequence (O43293 whole entry, looked up): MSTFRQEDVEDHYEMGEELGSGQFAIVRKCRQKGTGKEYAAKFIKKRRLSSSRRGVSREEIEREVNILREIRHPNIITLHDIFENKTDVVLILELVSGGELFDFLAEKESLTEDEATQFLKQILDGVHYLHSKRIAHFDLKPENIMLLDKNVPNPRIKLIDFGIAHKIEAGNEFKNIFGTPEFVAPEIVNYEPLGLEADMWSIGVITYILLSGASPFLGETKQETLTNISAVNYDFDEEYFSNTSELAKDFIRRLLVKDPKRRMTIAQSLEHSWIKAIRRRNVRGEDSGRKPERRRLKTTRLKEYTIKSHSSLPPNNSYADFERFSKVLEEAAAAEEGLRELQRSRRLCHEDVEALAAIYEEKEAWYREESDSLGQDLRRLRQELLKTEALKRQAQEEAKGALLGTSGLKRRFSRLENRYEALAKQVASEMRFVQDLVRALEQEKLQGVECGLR
Leucine-rich repeat serine/threonine-protein kinase 2 (Homo sapiens), sequence (Q5S007 whole entry): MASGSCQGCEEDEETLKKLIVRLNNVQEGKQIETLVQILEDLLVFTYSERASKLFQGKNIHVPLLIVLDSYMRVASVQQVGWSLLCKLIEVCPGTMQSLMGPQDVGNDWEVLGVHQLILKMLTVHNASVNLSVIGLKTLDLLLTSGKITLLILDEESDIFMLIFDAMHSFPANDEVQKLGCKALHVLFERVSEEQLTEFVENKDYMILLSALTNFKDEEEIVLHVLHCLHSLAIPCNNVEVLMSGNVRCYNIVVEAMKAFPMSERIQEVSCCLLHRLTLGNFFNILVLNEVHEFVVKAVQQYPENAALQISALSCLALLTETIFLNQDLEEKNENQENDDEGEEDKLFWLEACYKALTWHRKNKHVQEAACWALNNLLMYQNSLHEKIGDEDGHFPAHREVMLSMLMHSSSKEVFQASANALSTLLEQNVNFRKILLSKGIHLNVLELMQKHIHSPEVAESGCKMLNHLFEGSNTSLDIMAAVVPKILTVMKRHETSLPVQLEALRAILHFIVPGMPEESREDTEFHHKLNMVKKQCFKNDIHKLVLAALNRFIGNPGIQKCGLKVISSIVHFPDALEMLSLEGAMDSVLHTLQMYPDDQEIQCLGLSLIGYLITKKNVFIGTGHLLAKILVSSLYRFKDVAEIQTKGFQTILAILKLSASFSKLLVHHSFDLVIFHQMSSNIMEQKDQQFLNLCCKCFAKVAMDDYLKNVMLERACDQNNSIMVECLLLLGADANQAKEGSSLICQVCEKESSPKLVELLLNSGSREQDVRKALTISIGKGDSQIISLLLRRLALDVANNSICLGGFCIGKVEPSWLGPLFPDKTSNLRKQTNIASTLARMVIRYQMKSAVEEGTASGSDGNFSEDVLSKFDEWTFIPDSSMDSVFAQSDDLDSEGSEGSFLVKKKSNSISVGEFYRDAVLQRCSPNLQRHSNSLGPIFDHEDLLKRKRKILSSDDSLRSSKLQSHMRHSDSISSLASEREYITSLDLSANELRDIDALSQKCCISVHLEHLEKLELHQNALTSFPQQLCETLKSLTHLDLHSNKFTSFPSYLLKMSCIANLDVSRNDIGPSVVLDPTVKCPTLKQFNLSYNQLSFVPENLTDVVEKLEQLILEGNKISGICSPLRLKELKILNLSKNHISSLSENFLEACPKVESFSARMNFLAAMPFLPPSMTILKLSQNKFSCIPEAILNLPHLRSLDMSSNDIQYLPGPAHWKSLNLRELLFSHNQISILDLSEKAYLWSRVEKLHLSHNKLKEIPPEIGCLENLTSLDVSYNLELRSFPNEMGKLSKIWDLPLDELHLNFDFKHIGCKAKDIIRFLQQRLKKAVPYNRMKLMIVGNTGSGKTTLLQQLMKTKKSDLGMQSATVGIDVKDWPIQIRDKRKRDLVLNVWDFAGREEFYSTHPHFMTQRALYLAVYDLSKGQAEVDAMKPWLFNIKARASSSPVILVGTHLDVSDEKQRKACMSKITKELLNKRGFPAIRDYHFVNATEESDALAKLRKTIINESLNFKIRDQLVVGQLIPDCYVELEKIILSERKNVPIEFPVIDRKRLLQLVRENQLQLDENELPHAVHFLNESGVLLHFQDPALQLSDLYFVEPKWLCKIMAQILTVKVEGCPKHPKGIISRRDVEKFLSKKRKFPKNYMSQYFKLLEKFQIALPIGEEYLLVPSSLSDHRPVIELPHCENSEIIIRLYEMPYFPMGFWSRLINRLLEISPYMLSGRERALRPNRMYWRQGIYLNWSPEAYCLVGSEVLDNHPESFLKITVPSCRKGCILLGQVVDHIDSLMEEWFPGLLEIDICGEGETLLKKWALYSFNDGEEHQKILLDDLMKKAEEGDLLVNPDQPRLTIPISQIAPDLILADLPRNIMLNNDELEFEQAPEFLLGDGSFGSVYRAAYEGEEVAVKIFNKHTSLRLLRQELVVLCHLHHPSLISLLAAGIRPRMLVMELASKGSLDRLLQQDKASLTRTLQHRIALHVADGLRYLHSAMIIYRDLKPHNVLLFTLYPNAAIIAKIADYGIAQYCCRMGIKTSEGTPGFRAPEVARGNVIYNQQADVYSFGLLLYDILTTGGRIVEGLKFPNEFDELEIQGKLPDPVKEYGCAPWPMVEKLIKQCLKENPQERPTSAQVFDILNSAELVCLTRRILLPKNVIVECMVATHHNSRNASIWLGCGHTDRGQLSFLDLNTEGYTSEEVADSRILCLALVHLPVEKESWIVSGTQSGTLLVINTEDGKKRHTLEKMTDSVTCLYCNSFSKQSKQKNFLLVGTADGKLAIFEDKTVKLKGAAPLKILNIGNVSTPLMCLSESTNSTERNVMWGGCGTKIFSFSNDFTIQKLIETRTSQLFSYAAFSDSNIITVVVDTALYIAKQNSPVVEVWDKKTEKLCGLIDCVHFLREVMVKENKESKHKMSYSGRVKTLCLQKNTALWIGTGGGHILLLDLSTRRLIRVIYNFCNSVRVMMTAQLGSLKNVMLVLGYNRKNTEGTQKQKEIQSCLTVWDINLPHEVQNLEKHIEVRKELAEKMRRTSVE
Serine/threonine-protein kinase Nek6 (Homo sapiens), sequence (Q9HC98 whole entry): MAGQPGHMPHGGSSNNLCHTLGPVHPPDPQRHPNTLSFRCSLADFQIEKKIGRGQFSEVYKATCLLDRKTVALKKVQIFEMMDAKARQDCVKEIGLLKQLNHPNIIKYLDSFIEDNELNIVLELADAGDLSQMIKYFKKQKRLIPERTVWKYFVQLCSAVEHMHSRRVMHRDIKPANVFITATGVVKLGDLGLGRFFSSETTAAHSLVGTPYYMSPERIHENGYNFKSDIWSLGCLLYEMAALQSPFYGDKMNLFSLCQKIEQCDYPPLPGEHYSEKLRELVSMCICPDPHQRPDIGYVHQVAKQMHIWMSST

inhibition [1]	inhibition [2]	inhibition [3]	inhibition [4]	inhibition [5]	inhibition [7]	inhibition [8]	inhibition [9]	inhibition [10]	inhibition [11]	inhibition [12]	inhibition [13]	inhibition [14]	inhibition [15]	Compound	inhibition [6]
-2.06%	-9.66%	14.9%	-4.79%	-3.07%	1.39%	–	–	–	–	–	–	–	–	C[C@]1(O)C[C@@H](c2nc(-c3ccc4ccc(-c5ccccc5)nc4c3)c3c(N)nccn32)C1	6.02%
–	–	–	–	–	–	-1.35%	2.34%	0.58%	1.26%	-2.46%	-4.23%	-4.62%	11.7%	C[C@@]1(C(=O)Nc2ccc(F)nc2)CCCN1c1nc(Nc2cc(C3CC3)n[nH]2)c2cccn2n1	–
